For assay [1], the system named is Panc-1 cells. The assay can be described thus: Click-it EdU microplate proliferation assay. The format is cell-based, human. As to conditions: for potency in proliferation assay relative to crude crocetin: Panc-1, 48-72 hours, versus CC; for inhibiting proliferation: Panc-1 cells. How it is done: Pancreatic cancer cells were plated at desired density onto 96-well corning tissue culture plates. After 24 hours, cells were treated for 72 hours with different concentrations (1-50 μM) of purified crocetin and crude/commercial crocetin. Cells were labelled with Click-it EdU and were fixed. Then fixed cells were incubated with anti-Oregon Green antibody conjugated to horseradish peroxidase and measured flurescent product (excitation/emission˜568/585).
[…] We have also used higher doses (25, 50 and 100 μM) in this experiment and it needs about 50-100 concentration of CC for inhibition of proliferation and increase of apoptosis at the level of 1 and 10 μm of PC. Treated cells were then labeled with Brdu and cells were assayed by Invitrogen Click-it Edu fluorimetric microplate proliferation kit and apoptosis assay kit.

Assay [2] has as its system Panc-1 cells. The assay can be described thus: Apoptosis assay (apoptosis kit, Annexin V-FITC flow cytometry and fluorescence microscopy). The format is cell-based, human. Conditions: for potency in apoptosis assay relative to crude crocetin: Panc-1, 48-72 hours, versus CC; for stimulating apoptosis: Panc-1 cells. How it is done: FITC Annexin V and PI for flow cytometry provide a rapid and convenient assay for apoptosis. Treated and control cells were incubated with annexin V conjugate and propidium iodide (PI). Then cells were deposited onto slides for fluorescence microscopy. Cells were also used for flow cytometry analysis for live, apoptotic and dead cells using annexin V conjugated to green-fluorescent FITC dye and propidium iodide (PI). Propidium iodide stains necrotic cells with red fluorescence whereas green FITC dye stains apoptotic cells.
We treated Panc-1 pancreatic cancer cells with either purified crocetin or PC (fraction 5 of FIG. 2A) derived from alkaline treatment or crude commercial crocetin or CC (1 and 10 μM concentrations) for 48-72 hours. We have also used higher doses (25, 50 and 100 μM) in this experiment and it needs about 50-100 concentration of CC for inhibition of proliferation and increase of apoptosis at the level of 1 and 10 μm of PC. Treated cells were then labeled with Brdu and cells were assayed by Invitrogen Click-it Edu fluorimetric microplate proliferation kit and apoptosis assay kit.
In general terms: In flow cytometry, cells or beads pass a laser one at a time.

Assay [3] concerns pancreatic CSCs (pancospheres). The assay can be described thus: Pancospheroid formation assay. Type of assay: cell-based. Conditions: dose dependent, 0, 1, 5, 10, 20 μM. How it is done:
FIG. 7C illustrates spheroid formation assay. Stemness pancreatic cancer cells ware determined using spheroid assay in PC versus CC in different concentrations (0, 1, 5, 10, 20 μM); and
Spheroids were prepared as previously described (Reference 17). Briefly, 1000 cells/well in DMEM/F12 (Invitrogen, France) supplemented with EGF (20 ng/ml, Invitrogen) and B27 (1×, Invitrogen) were distributed in ultra-low attachment plates 6 well plates. Plates were placed in a humidified atmosphere of 5% CO2 at 37° C. Numbers of pancosphers formation, after 6-8 days culture, were counted under a light microscopy and quantified by Celigo software.

The subject of assay [4] is MIA-PaCa-2 xenograft tumor. The assay can be described thus: Pancreatic cancer xenograft tumor growth in athymic nude mice. The format is in vivo. Conditions: 0.5 mg/kg, oral, 0 to 21 days, in comparison to control. How it is done: FIG. 5 illustrates pancreatic cancer xenograft tumor growth in athymic (nude) mice. […] The tumor size was measured (right) from the start date of crocetin treatment (0 day) to end date of crocetin treatment (21 days) in comparison to control (no treatment). Number of animals is 5 in the control and treated group;
MIA-PaCa-2 cells (2.5×10^6) were injected into the right hind leg of each mouse for the development of tumor. The mice were divided into two groups (6 mice per group) with a control group and crocetin treatment group. After development of palpable tumor, the tumor size was measured twice in a week. When tumors are well established (approximately 0.34 cm^3); treatment was started. The treatment group received crocetin at 0.5 mg/kg/day orally dissolved in 15 ml of peptamen for 12 hours during dark for 30 days and the dose is in agreement with other investigators (References 14, 17, 20 and 27). Tumor size was monitored twice weekly, and its volume calculated as […], where a=length and b=width. Control group received only peptamen. The mice were given solid food during light time following liquid peptamen diet at dark. All mice were sacrificed after 30 days following treatment and tumors were taken out and stored at −80° C. […]

The next assay has as its system PCNA. The assay can be described thus: PCNA histochemical analysis of xenograft tumor tissue. The format is in vivo, athymic (nude) mice. Conditions: versus untreated. How it is done:
FIG. 6A illustrates expression of PCNA (proliferating cell nuclear antigen). Cell proliferation in tumor tissues, obtained from athymic mice as depicted in FIG. 5, was evaluated by staining for PCNA using histochemical analysis.
Immunohistochemical analysis was performed according to our previous described method (27) using Zymed broad range immunohistochemical kits (Zymed Laboratories, CA). Tumor tissue samples were fixed in 4% buffered formalin and embedded in paraffin. The serial sections of 5 μm were cut. The tissue sections were deparaffinized and were hydrated in different concentrations of ethanol (i.e. 100%, 90%, 70%, and 50%). Endogenous peroxidase activity was blocked at room temperature by incubating in hydrogen peroxide in methanol (1:9). Slides were washed with PBS (phosphate buffered saline) and nonspecific binding was blocked by blocking solution for 10 min. The sections were incubated with respective primary antibody in a humidified chamber at 4° C. overnight. The tissues were incubated with biotynylated secondary antibody (Zymed kit). The slides were then incubated with HRP (horseradish peroxidase) linked enzyme conjugate for 10 min. Positive reactions were visualized by incubating slides with stable 3,3′-diaminobenzidine (DAB) solution (Zymed kit) and counterstained with haematoxylin. The slides were dehydrated and mounted in permount for microscopic examination.

Experimental findings from patent US9889105B2, “In vivo method for treating, inhibiting, and/or prophylaxis of cancer, such as pancreatic cancer” (U.S. Department of Veterans Affairs, priority 2010, dated 2018) are described below.

On to `CC(C=CC=C(C)C(=O)O)=CC=CC=C(C)C=CC=C(C)C(=O)O` [crocetinic acid], for which the inhibition in proliferation result in the assay on Panc-1 cells [1] (1 µM, compared with CC) is given as “highly potent inhibition”. Moreover, the “potency in proliferation assay relative to crude crocetin” value with Panc-1 cells [1] (listed as #5) is reported as 50 times; in the assay on Panc-1 cells [1] (listed as PC) it was 50 times; in the assay on Panc-1 cells [1] (listed as purified crocetin), “about 50 times”. The inhibiting proliferation entry with Panc-1 cells [1] was “significantly inhibited”; with Panc-1 cells [1] (listed as #5) it was “promising effect”. Also, in the assay with Panc-1 cells [2] (1 µM, compared with CC), the apoptosis entry was “increase”. Further, the “potency in apoptosis assay relative to crude crocetin” value with Panc-1 cells [2] (listed as #5) is 50 times; in the assay on Panc-1 cells [2] (listed as PC), 50 times; in the assay with Panc-1 cells [2] (listed as purified crocetin), “about 50 times”. The results for the stimulating apoptosis entry in the assay on Panc-1 cells [2] and with Panc-1 cells [2] (listed as #5) were “stimulated apoptosis” and “promising effect”, respectively. For the same compound, in the assay with Panc-1 cells [2] (lower doses), the “apoptosis by flow cytometry and fluorescence microscopy” value is recorded as “significant increase”. The “number and size of primary and secondary pancospheres (spheroid formation)” value in assay [3] is “decreased”; in assay [3] (listed as #5) it was “significant inhibition”. Further, the tumor growth entry in assay [4] is recorded as “significantly inhibited”. In addition, the “PCNA expression in tumors” value with PCNA is “significantly decreased”.
